Holding throughout (format): in vivo
For assay [1], the system named is larvae of Plutella xylostella. The assay can be described thus: Insecticidal effect on larvae of Plutella xylostella (spray on potted Chinese cabbage). Particulars: for rate of killed insects (larvae): 5 days after release of larvae, agonized larvae regarded as killed. The method, then: The seeds of Chinese cabbage were sowed in a pot and then the seedlings were raised over 3 weeks. A water-diluted emulsion prepared according to the procedures used in the foregoing drug-preparation Example 1 was sufficiently sprayed on the leaves of these potted plants using an air brush (one concentration, once repeated). After the drug-containing liquid was air-dried, the plants were kept in a thermostatic chamber maintained at 25° C. and the larvae of the insect were set free. After 5 days from the release of the larvae, the latter was examined for whether they were died or not and whether they were in agony or not and the rates of killed insects (larvae) (%) were determined, while the agonized larvae were regarded as killed ones. In this respect, the comparative compounds used in this test were compounds A and B disclosed in JP-A-2006-306771 (Patent Document 25).

The next assay deals with nymphs of Myzus persicae. Put plainly: Effect of killing larvae of Myzus persicae (leaf piece immersion). Particulars: for rate of killed nymphs: 7th day after treatment, agonized nymphs regarded as killed. The method, then:
Three each of adults of Myzus persicae were inoculated on a cut piece (having a size of 3 cm×4 cm) of the leaf of Chinese cabbage and they were made breed for 48 hours within a thermostatic chamber maintained at a temperature of 25° C. After the removal of the adults, each cut piece of the leaf was immersed in a water-diluted emulsion prepared according to the same procedures used in the foregoing Drug-Preparation Example 1 for 5 seconds, and then kept in a thermostatic chamber maintained at 25° C. On 7th day after the foregoing treatment, the nymphs were inspected for whether they were died or not and whether they were in agony or not and the rates (%) of killed nymphs of the plant lice were determined, while the agonized nymphs were regarded as killed ones. In this respect, the comparative compounds used in this test were compounds A and B disclosed in JP-A-2006-306771.

In assay [2] the test system is female adults of Tetranychus urticae. The assay can be described thus: Miticidal effect on adults of Tetranychus urticae (spray on bean leaf-disks). The conditions noted are these: for rate of killed adults: 4 days after drug-spray, agonized adults regarded as killed. As for the experimental part:
A polyethylene cup having a volume of 430 ml and filled with water was covered with a cap in which a hole (diameter: about 5 mm) had been formed at the center thereof. A cut having a width of about 5 mm was made on a circular filter paper having a diameter of 6.5 cm, the strip-like portion of the filter paper, which hung down, was inserted into the cup through the hole thereof in such a manner that the portion was immersed in the water contained in the cup, and absorbent cotton was put on the filter paper so that the water in the cup was always supplied to the absorbent cotton. Then, two leaf-disks (2 cm×5 cm) prepared from the primary leaves of bean were put on the absorbent cotton and then these two leaf-disks were inoculated with 10 female adults of Tetranychus urticae. This cup was placed in a cylinder of acrylic resin having a height of 50 cm and an inner diameter of 10 cm and a water-diluted emulsion prepared according to the same procedures used in the foregoing drug-preparation Example 1 was then sprayed on each cup in an amount of 1.35 ml per cup using an air brush (one concentration, once repeated). After the agricultural chemical was sprayed, the cups were kept in a thermostatic chamber maintained at a temperature of 25° C. After 4 days from the drug-spray, the adults were examined, under the observation by a prism binocular, for whether they were died or not and whether they were in agony or not and the rates of killed mites (adults) (%) were determined, while the agonized adults were regarded as killed ones. In this respect, the comparative compounds used in this test were compounds A and B disclosed in JP-A-2006-306771.

Setting [3] is: comparative compounds, result in words, stated against the 50 ppm result.

`Cc1cc(C(F)(C(F)(F)F)C(F)(F)F)cc(C)c1NC(=O)c1cccc(NC(=O)C(N)=O)c1` [Compound 1-1]: the “rate of killed insects (larvae)” value in assay [1] (500 ppm) is listed as 100%. As to `Cc1cc(C(F)(C(F)(F)F)C(F)(F)F)cc(C)c1NC(=O)c1cccc(NC(=O)C(=O)NC2CCCC2)c1` [Compound 1-19], in assay [1] (50 ppm), the “rate of killed insects (larvae)” value is on record as 100%. With `Cc1cc(C(F)(C(F)(F)F)C(F)(F)F)cc(C)c1NC(=O)c1cccc(NC(=O)C(=O)N(C)C)c1` [Compound 1-21], in the assay on nymphs of Myzus persicae (50 ppm), the “rate of killed nymphs” value stood at 100%.

On to `Cc1cc(C(F)(C(F)(F)F)C(F)(F)F)cc(C)c1NC(=O)c1cccc(NC(=O)C(=O)N(C)C(C)C)c1` [Compound 1-24], for which the “rate of killed nymphs” value with nymphs of Myzus persicae (50 ppm) is 100%.

Take `Cc1cc(C(F)(C(F)(F)F)C(F)(F)F)cc(C)c1NC(=O)c1cccc(NC(=O)C(=O)N(C)C(C)(C)C)c1` [Compound 1-28]: the “rate of killed adults” value in assay [2] (5 ppm) worked out at 100%. Moreover, the “rate of killed nymphs” value with nymphs of Myzus persicae (50 ppm) turned out to be 100%. Further, in assay [1] (5 ppm), the “rate of killed insects (larvae)” value was 100%. Take `CCN(CC)C(=O)C(=O)Nc1cccc(C(=O)Nc2c(C)cc(C(F)(C(F)(F)F)C(F)(F)F)cc2C)c1` [Compound 1-30]: in assay [1] (50 ppm), the “rate of killed insects (larvae)” value was found to be 100%. On to `Cc1cc(C(F)(C(F)(F)F)C(F)(F)F)cc(C)c1NC(=O)c1cccc(NC(=O)C(=O)N2CCCC2)c1` [Compound 1-33, 3-(pyrrolidin-1-yl-oxalylamino)-N-(2,6-dimethyl-4-heptafluoroisopropyl)phenylbenzamide], for which, in the assay with nymphs of Myzus persicae (50 ppm), the “rate of killed nymphs” value was determined as 100%. Consider `CCc1cc(C(F)(C(F)(F)F)C(F)(F)F)cc(C)c1NC(=O)c1cccc(NC(=O)C(=O)N(C)C(C)C)c1` [Compound 1-40], for which the “rate of killed adults” value in assay [2] (5 ppm) turned out to be 100%. Take `CCc1cc(C(F)(C(F)(F)F)C(F)(F)F)cc(C)c1NC(=O)c1cccc(NC(=O)C(=O)N(C)C(C)(C)C)c1` [Compound 1-44]: the “rate of killed adults” value in assay [2] (5 ppm) worked out at 100%. Besides, the “rate of killed nymphs” value in the assay on nymphs of Myzus persicae (50 ppm) was found to be 100%. Besides, in assay [1] (5 ppm), the “rate of killed insects (larvae)” value was 100%. With `CCc1cc(C(F)(C(F)(F)F)C(F)(F)F)cc(C)c1NC(=O)c1cccc(NC(=O)C(=O)N(C)C2CCC2)c1` [Compound 1-45], the “rate of killed insects (larvae)” value in assay [1] (12.5 ppm) worked out at 100%. `CCc1cc(C(F)(C(F)(F)F)C(F)(F)F)cc(C)c1NC(=O)c1cccc(NC(=O)C(=O)N(C)C(C)(C)CC)c1` [Compound 1-46]: the “rate of killed adults” value in assay [2] (12.5 ppm) was 100%. On to `CCc1cc(C(F)(C(F)(F)F)C(F)(F)F)cc(C)c1NC(=O)c1cccc(NC(=O)C(=O)N(C)C2CCCC2)c1` [Compound 1-47], for which, in the assay on nymphs of Myzus persicae (50 ppm), the “rate of killed nymphs” value was determined as 100%. Also, the “rate of killed insects (larvae)” value in assay [1] (50 ppm) is reported as 100%.

As to `CCc1cc(C(F)(C(F)(F)F)C(F)(F)F)cc(C)c1NC(=O)c1cccc(NC(=O)C(=O)N(CC)C(C)(C)C)c1` [Compound 1-50], the “rate of killed adults” value in assay [2] (12.5 ppm) was 100%.

Take `Cc1cc(C(F)(C(F)(F)F)C(F)(F)F)ccc1NC(=O)c1cccc(NC(=O)C(=O)N(C)C)c1` [Compound 1-53]: the “rate of killed insects (larvae)” value in assay [1] (50 ppm) is 100%. Take `CCc1cc(C(F)(C(F)(F)F)C(F)(F)F)cc(CC)c1NC(=O)c1cccc(NC(=O)C(=O)N(C)CC)c1` [Compound 1-57]: the “rate of killed insects (larvae)” value in assay [1] (5 ppm) is on record as 100%. For the compound `CCN(C)C(=O)C(=O)Nc1cccc(C(=O)Nc2c(C)cc(C(F)(C(F)(F)F)C(F)(F)F)cc2Br)c1` [Compound 1-62], the “rate of killed insects (larvae)” value in assay [1] (12.5 ppm), in assay [1] (50 ppm) and in assay [1] (500 ppm) was 100% in each case. Take `Cc1cc(C(F)(C(F)(F)F)C(F)(F)F)cc(I)c1NC(=O)c1cccc(NC(=O)C(=O)N(C)C(C)(C)C)c1` [Compound 1-65]: the “rate of killed nymphs” value in the assay on nymphs of Myzus persicae (12.5 ppm) was found to be 100%. As to `CCN(C)C(=O)C(=O)Nc1cccc(C(=O)Nc2c(Br)cc(C(F)(C(F)(F)F)C(F)(F)F)cc2C(C)C)c1` [Compound 1-74], the “rate of killed adults” value in assay [2] (50 ppm) was determined as 100%.

For the compound `Cc1cc(C(F)(C(F)(F)F)C(F)(F)F)cc(C)c1NC(=O)c1cccc(NC(=O)C(=O)NCCCl)c1` [Compound 1-75], the “rate of killed insects (larvae)” value in assay [1] (5 ppm) came to 100%. On to `CCc1cc(C(F)(C(F)(F)F)C(F)(F)F)cc(C)c1NC(=O)c1cccc(NC(=O)C(=O)N(C)CCCl)c1` [Compound 1-78], for which the “rate of killed adults” value in assay [2] (50 ppm) was 100%. For `Cc1cc(C(F)(C(F)(F)F)C(F)(F)F)cc(C)c1NC(=O)c1cccc(NC(=O)C(=O)NCCBr)c1` [Compound 1-80], the “rate of killed insects (larvae)” value in assay [1] (500 ppm) was determined as 100%. As to `Cc1cc(C(F)(C(F)(F)F)C(F)(F)F)cc(C)c1NC(=O)c1cccc(NC(=O)C(=O)NCCCCl)c1` [Compound 1-83], the “rate of killed insects (larvae)” value in assay [1] (50 ppm) is 100%. Consider `CCc1cc(C(F)(C(F)(F)F)C(F)(F)F)cc(C)c1NC(=O)c1cccc(NC(=O)C(=O)N(C)CC(F)(F)F)c1` [Compound 1-87], for which the “rate of killed nymphs” value with nymphs of Myzus persicae (5 ppm) and in the assay on nymphs of Myzus persicae (50 ppm) was 100% in each case. Consider `CC(C)c1cc(C(F)(C(F)(F)F)C(F)(F)F)cc(Br)c1NC(=O)c1cccc(NC(=O)C(=O)N(C)CC(F)(F)F)c1` [Compound 1-96], for which, in assay [2] (12.5 ppm), the “rate of killed adults” value amounted to 100%. The “rate of killed insects (larvae)” value in assay [1] (12.5 ppm) came to 100%. Turning to `CCc1cc(C(F)(C(F)(F)F)C(F)(F)F)cc(C)c1NC(=O)c1cccc(NC(=O)C(=O)N(CC)CC(F)(F)F)c1` [Compound 1-97], the “rate of killed nymphs” value in the assay with nymphs of Myzus persicae (12.5 ppm) is on record as 100%. For the compound `CCc1cc(C(F)(C(F)(F)F)C(F)(F)F)cc(C)c1NC(=O)c1cccc(NC(=O)C(=O)N(C)CC(F)F)c1` [Compound 1-100], the “rate of killed adults” value in assay [2] (12.5 ppm) was determined as 100%. Still for that read-out and setting: the same measure for `CCc1cc(C(F)(C(F)(F)F)C(F)(F)F)cc(C)c1NC(=O)c1cccc(NC(=O)C(=O)N(C)CCF)c1` [Compound 1-103, 3-(N-(2-fluoroethyl)-N-methylaminooxalylamino)-N-(2-ethyl-4-heptafluoroisopropyl-6-methyl)phenylbenzamide]: 100%. Consider `CCc1cc(C(F)(C(F)(F)F)C(F)(F)F)cc(Br)c1NC(=O)c1cccc(NC(=O)C(=O)N(C)CC(F)F)c1` [Compound 1-109], for which the “rate of killed adults” value in assay [2] (12.5 ppm) and in assay [2] (50 ppm) was 100% in each case. In addition, the “rate of killed nymphs” value in the assay with nymphs of Myzus persicae (12.5 ppm) and in the assay with nymphs of Myzus persicae (50 ppm) was 100% each time. In addition, the “rate of killed insects (larvae)” value in assay [1] (12.5 ppm), in assay [1] (50 ppm) and in assay [1] (500 ppm) was 100% in each case. `COc1cc(C(F)(C(F)(F)F)C(F)(F)F)cc(Cl)c1NC(=O)c1cccc(NC(=O)C(=O)N(C)CC(F)(F)F)c1` [Compound 1-112]: the “rate of killed adults” value in assay [2] (50 ppm) is given as 100%. In addition, the “rate of killed insects (larvae)” value in assay [1] (12.5 ppm) and in assay [1] (50 ppm) was 100% throughout.

As for `CCN(C)C(=O)C(=O)Nc1cccc(C(=O)Nc2c(Cl)cc(C(F)(C(F)(F)F)C(F)(F)F)cc2OC(F)(F)F)c1` [Compound 1-115], in the assay with nymphs of Myzus persicae (12.5 ppm), the “rate of killed nymphs” value came out at 100%. Take `CCc1cc(C(F)(F)C(F)(F)C(F)(F)F)cc(C)c1NC(=O)c1cccc(NC(=O)C(=O)N(C)C(C)(C)C)c1` [Compound 2-2]: the “rate of killed nymphs” value with nymphs of Myzus persicae (12.5 ppm) is 100%.

On to `CCc1cc(C(F)(F)C(F)(F)C(F)(F)F)cc(C)c1NC(=O)c1cccc(NC(=O)C(=O)N(C)CC(F)(F)F)c1` [Compound 2-3], for which the “rate of killed insects (larvae)” value in assay [1] (12.5 ppm) came to 100%. In the case of `Cc1cc(C(F)(C(F)(F)F)C(F)(F)Br)cc(C)c1NC(=O)c1cccc(NC(=O)C(=O)N(C)CC(F)(F)F)c1` (centres unmarked) [Compound 2-15], the “rate of killed nymphs” value with nymphs of Myzus persicae (12.5 ppm) was determined as 100%. Turning to `COC(=O)C(=O)Nc1cccc(C(=O)Nc2c(C)cc(C(F)(C(F)(F)F)C(F)(F)F)cc2C)c1` [compound A, reference compound], the insecticidal effect result in assay [2] (setting [3]) is recorded as “did not show any insecticidal effect”; in the assay with nymphs of Myzus persicae (setting [3]), “did not show any insecticidal effect”; in assay [1] (comparative compounds, result in words, stated against the 500 ppm result), “did not show any insecticidal effect”.

(Values after patent US8541473B2, “3-aminoxalyl-aminobenzamide derivatives and insecticidal and miticidal agents containing same as active ingredient” (Agro-Kanesho Co., Ltd., priority 2009, dated 2013).)
